Read-outs that look alike come from different tables or passages of the source.
Legend:
Sodium Channel NaV 1.5 = Sodium Channel NaV 1.5 (Homo sapiens, UniProt Q14524); test: Sodium Channel NaV 1.5 ANT; conditions: antagonist; read-out: pIC50 Sodium Channel NaV 1.5 ANT (converted)
Excerpt: (§1) ANT = antagonist (pIC50), AG = agonist (pEC50). pIC50 and pEC50 are the negative logarithms10 of IC50 and EC50, respectively. Click here for file

PK analysis in rats = format: in vivo, male Sprague–Dawley rats
Experimental: All studies were conducted after review by the Institutional Animal Care and Use Committee at GlaxoSmithKline (GSK) and in accordance with the GSK Policy on the Care, Welfare and Treatment of Laboratory Animals.

[1] = target: Nicotinic Ach Receptor A1 (Homo sapiens, UniProt P02708+P07510+Q07001); test: Nicotinic Ach Receptor A1 AG
Nicotinic Ach Receptor A1, sequence (P02708 21-457): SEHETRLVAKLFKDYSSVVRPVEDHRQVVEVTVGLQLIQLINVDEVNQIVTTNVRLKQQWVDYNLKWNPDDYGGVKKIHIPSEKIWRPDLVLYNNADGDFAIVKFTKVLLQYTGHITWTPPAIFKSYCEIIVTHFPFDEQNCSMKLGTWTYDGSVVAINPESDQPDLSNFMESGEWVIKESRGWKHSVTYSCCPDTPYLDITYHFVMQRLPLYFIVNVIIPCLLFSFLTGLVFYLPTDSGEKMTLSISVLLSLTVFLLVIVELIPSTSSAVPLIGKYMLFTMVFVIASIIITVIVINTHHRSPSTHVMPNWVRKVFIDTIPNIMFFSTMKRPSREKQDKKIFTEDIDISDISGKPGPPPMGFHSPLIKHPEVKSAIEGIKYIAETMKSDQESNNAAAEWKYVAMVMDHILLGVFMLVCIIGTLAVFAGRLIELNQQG
Nicotinic Ach Receptor A1, sequence (P11230 24-501 partner): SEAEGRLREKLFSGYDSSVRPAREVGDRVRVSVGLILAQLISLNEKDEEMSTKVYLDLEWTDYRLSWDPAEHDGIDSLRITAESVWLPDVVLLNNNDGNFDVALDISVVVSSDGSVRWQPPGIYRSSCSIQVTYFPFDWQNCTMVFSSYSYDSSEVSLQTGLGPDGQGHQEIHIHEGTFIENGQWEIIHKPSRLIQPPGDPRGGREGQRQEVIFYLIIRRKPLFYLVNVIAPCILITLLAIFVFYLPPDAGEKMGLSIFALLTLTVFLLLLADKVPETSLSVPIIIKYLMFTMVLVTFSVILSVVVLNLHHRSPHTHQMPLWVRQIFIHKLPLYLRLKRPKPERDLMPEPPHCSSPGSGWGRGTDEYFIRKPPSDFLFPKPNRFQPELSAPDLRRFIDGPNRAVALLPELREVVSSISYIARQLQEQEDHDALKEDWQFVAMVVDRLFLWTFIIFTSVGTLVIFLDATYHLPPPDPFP
Nicotinic Ach Receptor A1, sequence (Q07001 22-517): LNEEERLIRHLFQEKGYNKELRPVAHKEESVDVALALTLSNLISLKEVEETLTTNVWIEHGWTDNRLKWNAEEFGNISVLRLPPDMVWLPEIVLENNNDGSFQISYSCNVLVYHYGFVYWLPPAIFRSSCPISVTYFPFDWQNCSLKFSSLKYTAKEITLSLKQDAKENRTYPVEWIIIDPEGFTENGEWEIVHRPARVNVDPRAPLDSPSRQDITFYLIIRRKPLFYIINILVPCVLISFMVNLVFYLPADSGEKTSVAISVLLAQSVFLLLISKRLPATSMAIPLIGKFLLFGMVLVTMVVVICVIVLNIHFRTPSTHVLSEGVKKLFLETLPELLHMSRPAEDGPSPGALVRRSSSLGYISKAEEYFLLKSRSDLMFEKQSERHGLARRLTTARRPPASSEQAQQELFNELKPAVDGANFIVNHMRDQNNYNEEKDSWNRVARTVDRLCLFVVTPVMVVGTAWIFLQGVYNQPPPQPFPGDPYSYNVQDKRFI
Nicotinic Ach Receptor A1, sequence (P07510 23-517): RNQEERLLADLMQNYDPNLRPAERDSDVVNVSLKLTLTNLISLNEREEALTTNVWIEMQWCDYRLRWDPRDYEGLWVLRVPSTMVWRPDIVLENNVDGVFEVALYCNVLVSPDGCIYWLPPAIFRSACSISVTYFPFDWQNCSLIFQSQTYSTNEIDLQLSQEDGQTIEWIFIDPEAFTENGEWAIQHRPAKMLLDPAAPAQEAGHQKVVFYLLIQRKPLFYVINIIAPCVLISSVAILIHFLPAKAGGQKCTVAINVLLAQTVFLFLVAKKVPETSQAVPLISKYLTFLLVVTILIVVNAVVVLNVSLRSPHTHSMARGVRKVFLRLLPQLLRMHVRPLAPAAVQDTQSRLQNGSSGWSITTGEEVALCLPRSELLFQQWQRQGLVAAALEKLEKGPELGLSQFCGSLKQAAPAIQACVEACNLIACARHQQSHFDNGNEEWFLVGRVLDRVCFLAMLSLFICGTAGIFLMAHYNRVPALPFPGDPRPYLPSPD
Excerpt: as §1

Potassium Channel Kv1.5 = Potassium Channel Kv1.5 (Homo sapiens, UniProt P22460); test: Potassium Channel Kv1.5 ANT; conditions: antagonist; read-out: pIC50 Potassium Channel Kv1.5 ANT (converted)
Potassium Channel Kv1.5, sequence (P22460 whole entry): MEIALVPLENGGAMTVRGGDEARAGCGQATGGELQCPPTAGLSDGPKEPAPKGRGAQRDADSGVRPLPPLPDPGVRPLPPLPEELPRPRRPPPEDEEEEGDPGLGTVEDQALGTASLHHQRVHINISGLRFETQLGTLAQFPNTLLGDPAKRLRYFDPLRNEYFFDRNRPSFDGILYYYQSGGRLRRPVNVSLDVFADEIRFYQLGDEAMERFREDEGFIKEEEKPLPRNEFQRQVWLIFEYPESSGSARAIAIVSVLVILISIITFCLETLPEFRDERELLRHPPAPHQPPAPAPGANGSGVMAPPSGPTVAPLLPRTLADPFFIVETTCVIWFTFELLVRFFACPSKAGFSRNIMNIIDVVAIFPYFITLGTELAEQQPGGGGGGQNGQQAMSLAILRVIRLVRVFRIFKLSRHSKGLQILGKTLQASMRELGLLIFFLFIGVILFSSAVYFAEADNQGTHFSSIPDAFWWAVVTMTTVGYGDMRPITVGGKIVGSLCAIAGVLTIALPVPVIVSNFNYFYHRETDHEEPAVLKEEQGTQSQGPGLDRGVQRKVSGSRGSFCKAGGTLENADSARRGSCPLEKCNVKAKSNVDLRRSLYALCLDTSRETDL
Excerpt: as §1

Cyclooxygenase 2 = Cyclooxygenase 2 (Homo sapiens, UniProt P35354); test: Cyclooxygenase 2 ANT; format: biochemical; conditions: antagonist; read-out: pIC50 Cyclooxygenase 2 ANT (converted)
Cyclooxygenase 2, sequence (P35354 18-604, species assumed): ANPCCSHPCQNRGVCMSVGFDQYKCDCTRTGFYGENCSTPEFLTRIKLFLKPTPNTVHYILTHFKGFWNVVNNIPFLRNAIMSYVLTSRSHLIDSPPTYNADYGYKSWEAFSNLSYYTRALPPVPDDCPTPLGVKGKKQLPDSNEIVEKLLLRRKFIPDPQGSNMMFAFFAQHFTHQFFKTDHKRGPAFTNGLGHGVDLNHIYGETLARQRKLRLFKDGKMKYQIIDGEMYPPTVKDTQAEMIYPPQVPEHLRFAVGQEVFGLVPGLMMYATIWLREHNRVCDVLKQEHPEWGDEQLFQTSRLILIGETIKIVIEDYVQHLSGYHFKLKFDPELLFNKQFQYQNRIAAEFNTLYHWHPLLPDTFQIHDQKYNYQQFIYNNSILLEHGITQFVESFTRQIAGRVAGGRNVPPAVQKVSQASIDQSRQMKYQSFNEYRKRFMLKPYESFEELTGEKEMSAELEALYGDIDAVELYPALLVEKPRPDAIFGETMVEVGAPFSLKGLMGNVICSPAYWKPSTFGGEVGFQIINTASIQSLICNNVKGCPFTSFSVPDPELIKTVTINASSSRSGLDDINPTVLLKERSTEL
Excerpt: as §1

Serotonin Transporter = Serotonin Transporter (Homo sapiens, UniProt P31645); test: Serotonin Transporter ANT; conditions: antagonist; read-out: pIC50 Serotonin Transporter ANT (converted)
Serotonin Transporter, sequence (P31645 whole entry): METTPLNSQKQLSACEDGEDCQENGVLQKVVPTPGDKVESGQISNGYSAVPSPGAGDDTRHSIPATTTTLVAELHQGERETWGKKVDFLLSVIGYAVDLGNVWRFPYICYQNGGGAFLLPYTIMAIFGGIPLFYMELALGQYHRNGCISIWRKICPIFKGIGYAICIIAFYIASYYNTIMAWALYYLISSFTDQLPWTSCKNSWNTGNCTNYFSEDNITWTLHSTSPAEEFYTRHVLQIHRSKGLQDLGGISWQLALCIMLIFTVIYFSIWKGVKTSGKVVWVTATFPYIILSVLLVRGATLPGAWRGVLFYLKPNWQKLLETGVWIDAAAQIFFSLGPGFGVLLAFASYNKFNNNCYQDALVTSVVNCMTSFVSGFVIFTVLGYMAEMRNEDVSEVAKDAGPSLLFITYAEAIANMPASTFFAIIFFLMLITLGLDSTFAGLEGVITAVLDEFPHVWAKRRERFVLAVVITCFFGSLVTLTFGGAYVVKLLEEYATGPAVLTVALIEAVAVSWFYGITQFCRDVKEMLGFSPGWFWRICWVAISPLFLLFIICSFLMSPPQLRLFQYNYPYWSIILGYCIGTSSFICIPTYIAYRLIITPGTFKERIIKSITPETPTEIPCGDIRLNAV
Excerpt: as §1

HepG2 cells = test: Cell proliferation and survival, HepG2 (trypan blue, Vi-Cell); format: cell-based, human; conditions: 4 to 8 days
Experimental: Sixty thousand Snu398 cells per well were plated in 6-well tissue culture plates in RPMI-1640 medium supplemented with 2.5% charcoal-stripped FBS (Life Technologies). Cells were allowed to attach overnight and then DMSO control or the indicated doses of LDHA inhibitor dissolved in DMSO were added directly to the wells. After 4 to 8 days of incubation in the indicated oxygen conditions, adherent cells were trypsinized, counted, and had their viability assessed by the trypan-blue exclusion method using the Vi-Cell XR Cell Viability Analyzer (Beckman Coulter, Brea, CA, USA). The same procedure was carried out for HepG2 cells, except non-charcoal-stripped FBS was used. For PARP cleavage analysis, both floating and adherent cells were collected after 24 h and the whole-cell extracts were prepared in radioimmunoprecipitation assay (RIPA) buffer (Sigma-Aldrich) supplemented with protease and phosphatase inhibitor cocktails (Sigma-Aldrich). Solubilized proteins were separated by SDS-PAGE, transferred onto nitrocellulose membrane, and detected with each specific antibody.

Opioid Receptor m = Opioid Receptor m (Homo sapiens, UniProt P35372); test: Opioid Receptor m AG; conditions: agonist; read-out: pEC50 Opioid Receptor m AG (converted)
Opioid Receptor m, sequence (P35372 whole entry): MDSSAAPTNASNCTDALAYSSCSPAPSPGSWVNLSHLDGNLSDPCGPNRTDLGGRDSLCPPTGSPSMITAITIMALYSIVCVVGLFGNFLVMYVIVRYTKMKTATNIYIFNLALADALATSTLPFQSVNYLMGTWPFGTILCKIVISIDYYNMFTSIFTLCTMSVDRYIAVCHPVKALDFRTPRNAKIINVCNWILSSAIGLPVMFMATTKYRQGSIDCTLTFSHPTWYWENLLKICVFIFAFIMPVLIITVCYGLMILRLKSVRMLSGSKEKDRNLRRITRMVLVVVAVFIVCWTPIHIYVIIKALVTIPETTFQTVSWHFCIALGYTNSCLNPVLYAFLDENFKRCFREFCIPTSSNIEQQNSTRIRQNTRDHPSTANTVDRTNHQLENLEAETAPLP
Excerpt: as §1

Serotonin Receptor 5HT2A = Serotonin Receptor 5HT2A (Homo sapiens, UniProt P28223); test: Serotonin Receptor 5HT2A ANT; conditions: antagonist; read-out: pIC50 Serotonin Receptor 5HT2A ANT (converted)
Serotonin Receptor 5HT2A, sequence (P28223 whole entry): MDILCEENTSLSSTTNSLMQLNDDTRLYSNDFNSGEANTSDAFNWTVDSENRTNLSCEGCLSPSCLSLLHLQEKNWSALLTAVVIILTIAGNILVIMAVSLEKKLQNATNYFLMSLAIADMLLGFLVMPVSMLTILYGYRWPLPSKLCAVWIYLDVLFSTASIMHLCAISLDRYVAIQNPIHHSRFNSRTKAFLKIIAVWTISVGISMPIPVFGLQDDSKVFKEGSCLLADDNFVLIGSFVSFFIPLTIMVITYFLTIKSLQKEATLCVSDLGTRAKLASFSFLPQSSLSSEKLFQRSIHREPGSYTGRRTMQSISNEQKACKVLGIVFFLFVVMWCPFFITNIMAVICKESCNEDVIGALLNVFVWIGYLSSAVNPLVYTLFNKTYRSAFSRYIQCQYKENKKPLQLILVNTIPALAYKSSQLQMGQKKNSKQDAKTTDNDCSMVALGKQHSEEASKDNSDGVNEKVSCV
Excerpt: as §1

Muscarinic Receptor M2 = target: T1, Muscarinic Receptor M2 (Homo sapiens, UniProt P08172); test: Muscarinic Receptor M2 ANT; conditions: antagonist; read-out: pIC50 Muscarinic Receptor M2 ANT (converted)
T1 sequence (P08172 1-466): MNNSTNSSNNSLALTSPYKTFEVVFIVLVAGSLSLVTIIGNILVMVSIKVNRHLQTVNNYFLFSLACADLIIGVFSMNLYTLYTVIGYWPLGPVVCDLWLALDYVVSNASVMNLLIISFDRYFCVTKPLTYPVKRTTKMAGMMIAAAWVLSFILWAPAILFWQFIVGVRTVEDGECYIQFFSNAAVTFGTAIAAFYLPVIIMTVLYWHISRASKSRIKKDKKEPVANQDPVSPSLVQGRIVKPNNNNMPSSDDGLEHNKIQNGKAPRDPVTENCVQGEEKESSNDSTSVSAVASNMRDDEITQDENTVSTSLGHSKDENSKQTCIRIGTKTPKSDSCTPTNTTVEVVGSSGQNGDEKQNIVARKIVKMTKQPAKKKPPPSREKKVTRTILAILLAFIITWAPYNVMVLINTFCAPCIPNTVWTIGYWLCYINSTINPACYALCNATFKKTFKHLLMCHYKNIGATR
Excerpt: as §1

Row | SMILES | IC50 (Sodium Channel NaV 1.5) [µM] | clearance (PK analysis in rats; male, Sprague-Dawley, rat, whole blood, IV infusion 0.25 mg/kg) [mL/min/kg] | blood compound level (PK analysis in rats; oral 50 mg/kg, detection limit 2.5 ng/mL) [ng/mL] | EC50 [1] [µM] | IC50 (Potassium Channel Kv1.5) [µM] | IC50 (Cyclooxygenase 2) [µM] | IC50 (Serotonin Transporter) [µM] | HepG2 survival (HepG2 cells) | EC50 (Opioid Receptor m) [µM] | IC50 (Serotonin Receptor 5HT2A) [µM] | IC50 (Muscarinic Receptor M2) [µM] | EC50 ([1]; agonist, read-out: pEC50 Nicotinic Ach Receptor A1 AG (converted)) [µM]
1 | COc1ncc(-c2ccc3c(Nc4cc(Oc5cc(F)cc(F)c5)cc(C(=O)O)c4)c(S(=O)(=O)NC4CC4)cnc3c2)c(OC)n1 [Compound 1] | 100 | 69 | ≤ 2.5 | 50.1 | 50.1 | 100 | 100 | did not change HepG2 survival except at the highest dose | 100 | 39.8 | 15.8 | –
2 | COc1ncc(-c2ccc3c(Nc4cc(C(=O)O)cc(C5CCCC5)c4)c(S(=O)(=O)NC4CC4)cnc3c2)c(OC)n1 [Compound 2] | 39.8 | – | – | – | 50.1 | 63.1 | 100 | – | 100 | 31.6 | 15.8 | 50.1
